Bridge positions count the residues as written; N and C are the ends. Square brackets hold non-standard residues; d marks the D form. Peptide text beside a SMILES is read from it. * marks the point of attachment. ξ: configuration not given here. Phe(4-NO2) = N[C@@H](Cc1ccc([N+](=O)[O-])cc1)C(=O)O; Phe(4-COOH) = N[C@@H](Cc1ccc(C(=O)O)cc1)C(=O)O; Bip = N[C@@H](Cc1ccc(-c2ccccc2)cc1)C(=O)O; Phe(3-Me) = Cc1cccc(C[C@H](N)C(=O)O)c1; Val(3-OH) = CC(C)(O)[C@H](N)C(=O)O; 3Pal = N[C@@H](Cc1cccnc1)C(=O)O; 4Pal = N[C@@H](Cc1ccncc1)C(=O)O; Cha = N[C@@H](CC1CCCCC1)C(=O)O; Cit = NC(=O)NCCC[C@H](N)C(=O)O; Ile(3ξ) = CCC(C)[C@H](N)C(=O)O; Thr(3ξ) = CC(O)[C@H](N)C(=O)O; Carboxymethyl = O=C(O)C*; NMeA = CN[C@@H](C)C(=O)O; Orn = NCCC[C@H](N)C(=O)O; Dab = NCC[C@H](N)C(=O)O; NH(CH2)3NH2 = NCCCN*
Each molecule was assayed against T1, PE-labeled human PD-L1-Ig binding to Jurkat cell line over-expressing human PD-1 (Jurkat-PD-1) (Homo sapiens, UniProt Q15116) (assay: Jurkat-PD-1 Cell Binding High-Content Screening Assay (CBA): Method 1). Details: Jurkat-hPD-1 cells, PE-labeled PD-L1-Ig 20 nM final; read-out: Jurkat HPDL1 PD1 IC50 (uM) (Method 1).
T1 construct: expressed in transfected cells; host or cells: Jurkat
T1 sequence (Q15116 25-288): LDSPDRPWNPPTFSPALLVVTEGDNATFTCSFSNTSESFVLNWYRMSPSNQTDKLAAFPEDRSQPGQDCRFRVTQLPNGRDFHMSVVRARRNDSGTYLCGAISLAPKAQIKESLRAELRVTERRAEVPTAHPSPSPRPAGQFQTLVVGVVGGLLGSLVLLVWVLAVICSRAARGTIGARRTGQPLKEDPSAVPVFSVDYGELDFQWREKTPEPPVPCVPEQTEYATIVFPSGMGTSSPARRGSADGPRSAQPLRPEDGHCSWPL

Q: How did the IC50 turn out when `CC(C)C[C@@H]1NC(=O)[C@H](CCN)NC(=O)[C@@H](CC(C)C)NC(=O)[C@H](C)N(C)C(=O)[C@H](CCCNC(=N)N)NC(=O)[C@H](Cc2ccc(-c3ccccc3)cc2)NC(=O)[C@H](C(C)C)NC(=O)[C@H](Cc2c[nH]c3ccccc23)NC(=O)[C@H](CC(=O)O)NC(=O)[C@H](Cc2ccc(O)cc2)NC(=O)[C@H](Cc2ccc([N+](=O)[O-])cc2)NC(=O)CSC[C@@H](C(=O)N[C@@H](C)C(N)=O)NC(=O)[C@H]([C@@H](C)O)NC(=O)[C@H](C(C)C)NC1=O` [Compound 1187] ({CH2CO}-[Phe(4-NO2)]YDWV[Bip]R[NMeA][dL][Dab]LVTCA-NH2; thioether N-14) was run?
A: Its IC50 is 0.05 µM.

Q: Which IC50 does the source give for `CCNC(=O)[C@H](CCN)NC(=O)[C@@H]1CSCC(=O)N[C@@H](Cc2cccnc2)C(=O)N[C@@H](Cc2ccc(OCC(=O)O)cc2)C(=O)N[C@@H](CC(=O)O)C(=O)N[C@@H](Cc2cccc(C)c2)C(=O)N[C@@H](Cc2ccc(OCC(=O)O)cc2)C(=O)N[C@@H](Cc2ccc(-c3ccccc3)cc2)C(=O)N[C@@H](Cc2ccc(OCC(=O)O)cc2)C(=O)N(C)[C@@H](C)C(=O)N[C@H](CC(C)C)C(=O)N[C@@H](CCN)C(=O)N[C@@H](CC2CCCCC2)C(=O)N[C@@H](C(C)C)C(=O)N[C@@H]([C@@H](C)O)C(=O)N1` [Compound 1856] ({CH2CO}-[3Pal]Y(Carboxymethyl)D[Phe(3-Me)]Y(Carboxymethyl)[Bip]Y(Carboxymethyl)[NMeA][dL][Dab][Cha]VTC[Dab]-NHEt; thioether N-14) here?
A: Its IC50 is 0.02 µM.

Q: How did the IC50 turn out when `CCC(C)[C@@H]1NC(=O)[C@H](Cc2ccc(-c3ccccc3)cc2)NC(=O)[C@H](CC(C)C)NC(=O)[C@H](Cc2c[nH]c3ccccc23)NC(=O)[C@H](CC(=O)O)NC(=O)[C@H](Cc2ccc(C(=O)O)cc2)NC(=O)[C@H](Cc2ccc(OCC(=O)O)cc2)NC(=O)CSC[C@@H](C(=O)N[C@@H](CC(N)=O)C(N)=O)NC(=O)[C@H](CO)NC(=O)[C@H](C(C)C)NC(=O)[C@H](CC2CCCCC2)NC(=O)[C@H](CCN)NC(=O)[C@@H](CC(C)C)NC(=O)[C@H](C)N(C)C1=O` (stereo partly drawn) [Compound 1917] ({CH2CO}-Y(Carboxymethyl)[Phe(4-COOH)]DWL[Bip][Ile(3ξ)][NMeA][dL][Dab][Cha]VSCN-NH2; thioether N-14) was run?
A: The IC50 was 0.04 µM.

Q: `CC(C)C[C@@H]1NC(=O)[C@H](Cc2c[nH]c3ccccc23)NC(=O)[C@H](CC(=O)O)NC(=O)[C@H](Cc2ccc(O)cc2)NC(=O)[C@H](Cc2ccncc2)NC(=O)CSC[C@@H](C(=O)NCC(N)=O)NC(=O)[C@H](CO)NC(=O)[C@H](C(C)C)NC(=O)[C@H](CC(C)C)NC(=O)[C@H](CC(N)=O)NC(=O)[C@@H](C)NC(=O)[C@H](C)N(C)C(=O)[C@H](C(C)C)NC(=O)[C@H](Cc2ccc(-c3ccccc3)cc2)NC1=O` [Compound 1722] ({CH2CO}-[4Pal]YDWL[Bip]V[NMeA][dA]NLVSCG-NH2; thioether N-14) was tested. Which IC50 did it give?
A: The IC50 was 0.01 µM.

Q: Which IC50 does the source give for `Cc1cccc(C[C@@H]2NC(=O)[C@H](CC(=O)O)NC(=O)[C@H](Cc3ccncc3)NC(=O)[C@H](Cc3ccc(OCC(=O)O)cc3)NC(=O)CSC[C@@H](C(=O)N[C@@H](CCC(=O)O)C(N)=O)NC(=O)[C@H](CO)NC(=O)[C@H](C(C)C)NC(=O)[C@H](CC(C)C)NC(=O)[C@H](CC(N)=O)NC(=O)[C@@H](CC(C)C)NC(=O)[C@H](C)N(C)C(=O)[C@H](C(C)C)NC(=O)[C@H](Cc3ccc(-c4ccccc4)cc3)NC(=O)[C@H](CC(C)C)NC2=O)c1` [Compound 1603] ({CH2CO}-Y(Carboxymethyl)[4Pal]D[Phe(3-Me)]L[Bip]V[NMeA][dL]NLVSCE-NH2; thioether N-14) here?
A: Its IC50 is 0.01 µM.

Q: How did the IC50 turn out when `CC(=O)NCCCC[C@@H]1NC(=O)[C@H](C(C)C)NC(=O)[C@H](CC2CCCCC2)NC(=O)[C@H](CCN)NC(=O)[C@@H](CC(C)C)NC(=O)[C@H](C)N(C)C(=O)[C@H](CCC(N)=O)NC(=O)[C@H](Cc2ccc(-c3ccccc3)cc2)NC(=O)[C@H](C(C)C)NC(=O)[C@H](Cc2cccc(C)c2)NC(=O)[C@H](CC(=O)O)NC(=O)[C@H](Cc2ccc(OCC(=O)O)cc2)NC(=O)[C@H](Cc2ccc(OCC(=O)O)cc2)NC(=O)CSC[C@@H](C(=O)NCCCN)NC1=O` [Compound 2265] ({CH2CO}-Y(Carboxymethyl)Y(Carboxymethyl)D[Phe(3-Me)]V[Bip]Q[NMeA][dL][Dab][Cha]VK(Ac)C-{NH(CH2)3NH2}; thioether N-14) was run?
A: Its IC50 is 0.02 µM.

Q: Which IC50 does the source give for `CC(=O)NCCCC[C@@H]1NC(=O)[C@H](Cc2ccc(-c3ccccc3)cc2)NC(=O)[C@H](Cc2ccc(O)cc2)NC(=O)[C@H](Cc2cccc(C)c2)NC(=O)[C@H](CC(=O)O)NC(=O)[C@H](Cc2ccc(OCC(=O)O)cc2)NC(=O)[C@H](C(C)O)NC(=O)CSC[C@@H](C(=O)N[C@H](CC(N)=O)C(N)=O)NC(=O)[C@H](C(C)O)NC(=O)[C@H](C(C)C)NC(=O)[C@H](CC2CCCCC2)NC(=O)[C@H](CCN)NC(=O)[C@@H](CC(C)C)NC(=O)[C@H](C)N(C)C1=O` (stereo partly drawn) [Compound 2118] ({CH2CO}-[Thr(3ξ)]Y(Carboxymethyl)D[Phe(3-Me)]Y[Bip]K(Ac)[NMeA][dL][Dab][Cha]V[Thr(3ξ)]C[dN]-NH2; thioether N-14) here?
A: The IC50 was 0.05 µM.

Q: Which IC50 does the source give for `Cc1cccc(C[C@@H]2NC(=O)[C@H](CC(=O)O)NC(=O)[C@H](Cc3ccc(OCC(=O)O)cc3)NC(=O)[C@H](Cc3ccncc3)NC(=O)CSC[C@@H](C(=O)N[C@@H](C)C(N)=O)NC(=O)[C@H]([C@@H](C)O)NC(=O)[C@H](C(C)C)NC(=O)[C@H](CC(C)C)NC(=O)[C@H](CCN)NC(=O)[C@@H](CC(C)C)NC(=O)[C@H](C)N(C)C(=O)[C@H](C(C)C)NC(=O)[C@H](Cc3ccc(-c4ccccc4)cc3)NC(=O)[C@H](C(C)C)NC2=O)c1` [Compound 1419] ({CH2CO}-[4Pal]Y(Carboxymethyl)D[Phe(3-Me)]V[Bip]V[NMeA][dL][Dab]LVTCA-NH2; thioether N-14) here?
A: Its IC50 is 0.01 µM.

Q: How did the IC50 turn out when `CC(C)C[C@@H]1NC(=O)[C@H](Cc2c[nH]c3ccccc23)NC(=O)[C@H](CC(=O)O)NC(=O)[C@H](Cc2ccc(OCC(=O)O)cc2)NC(=O)[C@H](Cc2ccccc2)NC(=O)CSC[C@@H](C(N)=O)NC(=O)[C@H](CO)NC(=O)[C@H](C(C)C)NC(=O)[C@H](CC(C)C)NC(=O)[C@H](CC(N)=O)NC(=O)[C@@H](CC(C)C)NC(=O)[C@H](C)N(C)C(=O)[C@H](CCCNC(N)=O)NC(=O)[C@H](Cc2ccc(-c3ccccc3)cc2)NC1=O` [Compound 1627] ({CH2CO}-FY(Carboxymethyl)DWL[Bip][Cit][NMeA][dL]NLVSC-NH2; thioether N-14) was run?
A: Its IC50 is 0.06 µM.

Q: `CC(C)C[C@@H]1NC(=O)[C@H](Cc2c[nH]c3ccccc23)NC(=O)[C@H](CC(=O)O)NC(=O)[C@H](Cc2ccc(O)cc2)NC(=O)[C@H](Cc2ccccc2)NC(=O)CSC[C@@H](C(=O)N[C@@H](C)C(=O)N[C@@H](CCCN)C(=O)O)NC(=O)[C@H](CO)NC(=O)[C@H](C(C)C)NC(=O)[C@H](CC(C)C)NC(=O)[C@H](CC(N)=O)NC(=O)[C@@H](CC(C)C)NC(=O)[C@H](C)N(C)C(=O)[C@H](C(C)C)NC(=O)[C@H](Cc2ccc(-c3ccccc3)cc2)NC1=O` [Compound 2238] ({CH2CO}-FYDWL[Bip]V[NMeA][dL]NLVSCA[Orn]-OH; thioether N-14) was tested. Which IC50 did it give?
A: The IC50 was 0.01 µM.

Q: How did the IC50 turn out when `Cc1cccc(C[C@@H]2NC(=O)[C@H](CC(=O)O)NC(=O)[C@H](Cc3ccc(C(=O)O)cc3)NC(=O)[C@H](Cc3ccc(OCC(=O)O)cc3)NC(=O)CSC[C@@H](C(N)=O)NC(=O)[C@H]([C@@H](C)O)NC(=O)[C@H](C(C)C)NC(=O)[C@H](CC(C)C)NC(=O)[C@H](CC(N)=O)NC(=O)[C@@H](CC(C)C)NC(=O)[C@H](C)N(C)C(=O)[C@H](C(C)C)NC(=O)[C@H](Cc3ccc(-c4ccccc4)cc3)NC(=O)[C@H](CC(C)C)NC2=O)c1` [Compound 1682] ({CH2CO}-Y(Carboxymethyl)[Phe(4-COOH)]D[Phe(3-Me)]L[Bip]V[NMeA][dL]NLVTC-NH2; thioether N-14) was run?
A: The IC50 was 0.09 µM.

Q: Which IC50 does the source give for `CCC(C)[C@@H]1NC(=O)[C@H](Cc2ccc(-c3ccccc3)cc2)NC(=O)[C@H](CC(C)C)NC(=O)[C@H](Cc2c[nH]c3ccccc23)NC(=O)[C@H](CC(=O)O)NC(=O)[C@H](Cc2ccc(C(=O)O)cc2)NC(=O)[C@H](Cc2ccc(OCC(=O)O)cc2)NC(=O)CSC[C@@H](C(=O)N[C@@H](CC(N)=O)C(N)=O)NC(=O)[C@H](CO)NC(=O)[C@H](C(C)C)NC(=O)[C@H](CC2CCCCC2)NC(=O)[C@H](CCN)NC(=O)[C@@H](CC(C)C)NC(=O)[C@H](C)N(C)C1=O` (stereo partly drawn) [Compound 1923] ({CH2CO}-Y(Carboxymethyl)[Phe(4-COOH)]DWL[Bip][Ile(3ξ)][NMeA][dL][Dab][Cha]VSCN-NH2; thioether N-14) here?
A: The IC50 was 0.02 µM.

Q: `Cc1cccc(C[C@@H]2NC(=O)[C@H](CC(=O)O)NC(=O)[C@H](Cc3ccc(OCC(=O)O)cc3)NC(=O)[C@H]([C@@H](C)O)NC(=O)CSC[C@@H](C(N)=O)NC(=O)[C@H](CCC(N)=O)NC(=O)[C@H](C(C)C)NC(=O)[C@H](CC3CCCCC3)NC(=O)[C@H](CCN)NC(=O)[C@@H](CC(C)C)NC(=O)[C@H](C)N(C)C(=O)[C@H](Cc3ccc(OCC(=O)O)cc3)NC(=O)[C@H](Cc3ccc(-c4ccccc4)cc3)NC(=O)[C@H](Cc3ccc(OCC(=O)O)cc3)NC2=O)c1` [Compound 1671] ({CH2CO}-TY(Carboxymethyl)D[Phe(3-Me)]Y(Carboxymethyl)[Bip]Y(Carboxymethyl)[NMeA][dL][Dab][Cha]VQC-NH2; thioether N-14) was tested. Which IC50 did it give?
A: The IC50 was 0.09 µM.

Q: `Cc1cccc(C[C@@H]2NC(=O)[C@H](CC(=O)O)NC(=O)[C@H](Cc3ccc(O)cc3)NC(=O)[C@H](CC(N)=O)NC(=O)CSC[C@@H](C(=O)N[C@@H](CCN)C(N)=O)NC(=O)[C@H]([C@@H](C)O)NC(=O)[C@H](C(C)C)NC(=O)[C@H](CC3CCCCC3)NC(=O)[C@H](CCN)NC(=O)[C@@H](CC(C)C)NC(=O)[C@H](C)N(C)C(=O)[C@H](CCCNC(N)=O)NC(=O)[C@H](Cc3ccc(-c4ccccc4)cc3)NC(=O)[C@H](C(C)(C)O)NC2=O)c1` [Compound 1703] ({CH2CO}-NYD[Phe(3-Me)][Val(3-OH)][Bip][Cit][NMeA][dL][Dab][Cha]VTC[Dab]-NH2; thioether N-14) was tested. Which IC50 did it give?
A: The IC50 was 0.02 µM.
